Data set [1] has as its system CO2-induced amnesia in mice. Nature of the data set: Effect on CO2-induced amnesia in mice (passive avoidance response). Format: in vivo, mice (male ICR). The note with it: p.o.; for Anti-amnesia (latency, percent change of the mean time of the vehicle-treated control group): 30 min before the test, saline = 100; for minimal effective dose: Mus musculus, po, mice, read-out: Anti-amnesia MED (minimum effective dose for CO2-induced amnesia). How it is done:
Effect on CO2 -induced amnesia in mice Effect of the compound (I) on […] of passive avoidance response, induced by exposing mice to 100% CO2 gas, was evaluated. Male ICR mice (Japan Clea) aged 5 weeks were used. The experimental apparatus consisted of two chambers, in which one illuminated chamber (9×9×25 cm) was connected to a dark chamber (25×25×30 cm) with a guillotine door. Each mouse was placed in the illuminated chamber and then allowed to enter the dark one. When the mouse entered the dark chamber, the door was closed and AC 0.5 mA footshock was applied to the floor grid of the dark chamber. The mouse can memorize the experience after receiving the uncomfortable stimulus for a few weeks. Next, the consolidation processes of memory were disturbed by an experimental manipulation: Each mouse was placed under the hypoxic condition by being placed into a 4L desiccator filled with 100% CO2 gas, immediately after receiving the footshock in the dark chamber. When his respiratory function was stopped, the mouse was taken out from the desiccator and given an artificial respiration till recovering spontaneous respiration. This procedure disturbed the consolidation of the memory (experience of footshock). On the next day, a retention test was performed to see whether the mouse memorized the footshock or not. In the test, the mouse was again placed in the illuminated compartment and the latency to enter the dark compartment was measured. The mice subjected to hypoxia entered the dark compartment with short latency, 10-20 sec. […] The ameliorating effect of compounds on the amnesia induced by hypoxia was evaluated by the latency time, and was expressed as the percent change of the mean time of the vehicle-treated control group (Table 6.).

For data set [2], the system named is mice. Nature of the data set: General Symptoms (Side Effects) in mice. It is filed as in vivo. Details: key: +++: marked; ++: moderate; +: mild; -: nondetected. The settings on record: i.p., observed for 4 hours; for Hypothermia / Sedation / Tremor: central effect; for Diarrhea / Mydriasis / Salivation: peripheral effect. The method, then:
General Symptoms (Side Effects) Four mice were used for each group. Mice were placed in stainless steel cages (13×18×25 cm) and after a 1-hr habitation period the compounds were administered. […] Peripheral and central effects of the compounds were estimated with the incidences of diarrhea, salivation and mydriasis and with the incidences of tremor and sedation and a grade of hypothermia, respectively. The compounds which were soluble in saline were solubilized in saline and the other were suspended in 5% arabic gum solution. Each compound was administered intraperitoneally (i.p.).

A short description of data set [3]: LD50 value and Therapeutic index. The settings on record: mouse, in vivo, po; for LD50: mice; for selectivity ratio: ratio of LD50 value to MED for CO2-induced amnesia. From the text: LD50 value and Therapeutic index
Ten mice were used for each group. LD50 value and therapeutic index were estimated with the dose (mg/kg, p.o.) which induced death in 50% of mice and with a ratio of LD50 value to a minimum effective dose (MED) for CO2 -induced amnesia, respectively.

The mark [4] stands for this setting: dose 0.3 mg/kg, * P < 0.05, ** P < 0.01.

Structures can show the parent of a compound that is named as a salt.

As for `CON1C(=O)CC2(CCN(C)CC2)C1=O.Cl` [Example 1, 2-Methoxy-8-methyl-2,8-diazaspiro[4,5]decane-1,3-dione hydrochloride], in data set [1] (dose 0.1 mg/kg, * P < 0.05), the “Anti-amnesia (latency, percent change of the mean time of the vehicle-treated control group)” value is reported as 277%. For the same compound, in data set [2], the Hypothermia result is reported as “-”, the Sedation result is listed as “++”, the Tremor entry is recorded as “++” and the Diarrhea result is reported as “-”. Besides, in data set [2], the Mydriasis entry is reported as “-” and the Salivation entry is “+++”.
As to `CON1C(=O)CC2(CCN(C(=O)OCCBr)CC2)C1=O` [Example 22, 8-(2-Bromoethoxycarbonyl)-2-methoxy-2,8-diazaspiro[4,5]decane-1,3-dione], the “Anti-amnesia (latency, percent change of the mean time of the vehicle-treated control group)” value in data set [1] (dose 1.0 mg/kg, * P < 0.05) came out at 311%. In data set [2], the Hypothermia entry is given as “+”, the Sedation result is given as “+”, the Tremor entry is “-” and the Diarrhea result was “+”. In data set [2], the Mydriasis result is listed as “+” and the Salivation result is reported as “+”.
Consider `CON1C(=O)CC2(CCNCC2)C1=O` [Example 9, 2-Methoxy-2,8-diazaspiro[4,5]decane-1,3-dionehydrochloride], for which, in data set [3], the 50% lethal dose (LD50) was found to be 2010 mg/kg and the selectivity ratio was 20100. Also, the minimal effective dose in data set [1] amounted to 0.1 mg/kg. In addition, the “Anti-amnesia (latency, percent change of the mean time of the vehicle-treated control group)” value in data set [1] (dose 0.1 mg/kg, * P < 0.05) is reported as 227%. Also, the “Anti-amnesia (latency, percent change of the mean time of the vehicle-treated control group)” value in data set [1] (setting [4]) came to 321%. In data set [2], the Hypothermia entry was “+”, the Sedation entry was “++”, the Tremor entry was “-” and the Diarrhea result was “++”. Besides, in data set [2], the Mydriasis result was “-” and the Salivation result is given as “+++”.
As to `CCN1C(=O)CC2(CCN(C)CC2)C1=O` [RS-86, reference compound], in data set [3], the LD50 is 574 mg/kg and the selectivity ratio was determined as 1910. Further, the minimal effective dose in data set [1] came out at 0.3 mg/kg. For the same compound, the “Anti-amnesia (latency, percent change of the mean time of the vehicle-treated control group)” value in data set [1] (setting [4]) turned out to be 258%. For the same compound, in data set [2], the Hypothermia entry was “+++”, the Sedation entry was “+++”, the Tremor result is recorded as “+” and the Diarrhea result was “+++”. In data set [2], the Mydriasis result is “++” and the Salivation result was “+++”.
